We go through seven compounds from patent US11072601B2, “μ-opioid receptor agonist and preparation method therefor and use thereof in field of medicine” (SHANGHAI SYNERGY PHARMACEUTICAL SCIENCES CO., LTD., priority 2017, dated 2021).

Usually Emax stands for the maximal effect, on the per cent scale that the assay sets. For orientation: EC50 means the concentration giving half of the maximal effect. What is called AUC is concentration integrated over time. As usually defined, the half-life is how long it takes for the measured level to halve.

The structures appear in SMILES notation.

Series [1] has as its target T1, β-arrestin signaling pathway of MOR (Homo sapiens, UniProt P35372).
T1 construct: host or cells: HEK293 (PathHunter cell line)
Kind of series: cell-based. As to conditions: PathHunter HEK293 cells, relative to endorphin MAX control.

The test system of a further series is SD rats. Kind of series: Respiratory depression in rats, arterial blood gas PCO2. The class given is in vivo. As to conditions: for PCO2, 5 min before administration: arterial blood; for PCO2, 5 min after administration / PCO2, 30 min after administration / PCO2, 60 min after administration / PCO2, 120 min after administration: intravenous single dose 0.3 mg/kg (morphine 24 mg/kg). The text has this: 8-week-old male SD rats weighing 200 g-300 g were used as experimental animals to determine the effect of the compound of Example H05, the compound of Example H08, the compound of Example H10, the compound of Example H16, the compound of Example H17, the compound of Example H18, the compound of Example H21, and the compound of Example H24 on the partial pressure of blood in rats after intravenous administration. The effects of the compounds of the invention on respiratory depression were investigated.
After the rats were acclimatized to the experimental environment for 3 days, each animal was anesthetized with sodium pentobarbital (50-60 mg/kg, ip), and then the right common carotid artery was isolated and the unilateral carotid artery tube-bury surgery was performed (PE60, ID*OD*length as 0.76 mm*1.22 mm*20 cm, buried into the artery 1 cm deep, and the tube was filled with heparin sodium tube sealing solution).

Series [2] deals with T2, cAMP pathway of MOR receptor (Homo sapiens, UniProt P35372).
T2 construct: host or cells: HEK293 (cAMP Hunter cell line)
Briefly: cell-based. Conditions: cAMP Hunter HEK293 cells, forskolin-induced cAMP; read-out: EC50 of cAMP levels affected by agonistic effect on MOR. The text has this: The purpose of this experiment was to test the agonistic effect of the compounds of the invention on the cAMP pathway of MOR and to evaluate the in vitro activity of the compounds according to EC50.
In this experiment, HitHunter cAMP Assay EFC technology of DiscoverX was used to measure the cAMP level in cells and monitor the functional status of G-protein coupled receptors (GPCRs).
The amount of signal produced was directly proportional to the amount of cAMP in the cell.
The MOR receptor was bound to the inhibitory Gαi protein, so forskolin (for inducing cAMP signal) was used to induce cAMP expression in the experiment, and the inhibitory effect of the compounds on the above induction was measured.
The cAMP Hunter cell line (HEK293, DiscoverX) was removed from the freezer and expanded according to the Cell Standard Operating Procedure (SOP), 20 μL was collected and inoculated into a 384-well microplate and incubated at 37° C. overnight.
The HitHunter cAMP Assay test kit (DiscoverX, 90-0075sm) was used, the kit contained cAMP buffer, cAMP detection solution, and cAMP working solution A.
The formula was used to calculate the percentage of signal activity per well=100%×(1−(average RLU of the test samples−average RLU of the MAX controls)/(average RLU of the solvent controls−average RLU of the MAX controls)). wherein, the MAX control referred to the fluorescence signal value of the endorphin solution, and the solvent control referred to the fluorescence signal value of DMSO. The DiscoveRx CBIS data analysis workstation (ChemInnovation, CA) was used to perform statistical analysis of the percentage of signal activity and the concentration of the compounds by the agonist formula (comes with the software, universal) to calculate the EC50 value.
A general note: cAMP levels reflect the balance of adenylyl cyclase and phosphodiesterase activity.

In a further series the target is T3, μ opioid receptor (MOR) (Homo sapiens, UniProt P35372).
T3 construct: host or cells: HEK293
Briefly: cell-based. Conditions: HEK293 stably expressing μ opioid receptor, FLIPR calcium. The protocol:
The purpose of the experiment was to test the agonistic effects of the compounds of the present invention on μ opioid receptor (MOR), κ opioid receptor (KOR) and δ opioid receptor (DOR), and to evaluate in vitro activity of the compounds according to the half-maximal effect concentration (EC50).
This test was performed using HEK293 cell lines (the stably expressed cell lines were provided by WuXi AppTec) which stably expressed μ opioid receptor, δ opioid receptor or κ opioid receptor respectively. […] The cells were centrifuged at 1000 rpm for 5 minutes at room temperature to precipitate. The supernatant was sucked out, be careful not to suck out cells. The precipitate was flicked into the loose cells and resuspend in 45 ml DMEM medium. The Vi-CELL XR automatic cell viability detector (BECKMAN COULTER) was used to count the cells, and the cell concentration was adjusted to 10×10^5 cells/ml based on the counting results.
Preparation of probenecid mother solution: 1 ml of FLIPR test solution was added to 77 mg probenecid to prepare a 250 mM solution. The solution was freshly prepared just before use.
The solution was freshly prepared just before use.
The cell plate prepared above was removed from the incubator and 20 ul 2× Fluo-4 Direct™ buffer was added thereto. The final volume in the cell plate was […]. The plate was incubated at 37° C., under 5% CO2 for 50 minutes, and incubated at room temperature for 10 minutes, then was placed into the FLIPR instrument (MD), and the compound plate and pipette box was placed into. The protocol was run on the […] platform, 10 μl of positive drug or the test compound was transfered to the cell plate from the compound plate, and the fluorescent signal was read.
The signal value generated by each well was calculated, and the calculation formula was that: the activity %=(signal value of the test compound−signal value of the solvent)/(signal value of the positive drug−signal value of the solvent).

Series [3] can be described thus: Pharmacokinetic test in rats, intravenous. The class given is in vivo. As to conditions: male, SD, rat, plasma, intravenous 1 mg/kg; for AUC: read-out: curve area (AUC); for half-life: read-out: half life (T½) (converted); for Cmax: read-out: plasma concentration (Cmax). An excerpt:
8-week-old male SD rats weighing 200-300 g were used as experimental animals, and LC/MS/MS method was used to determine the drug concentration in plasma at different times after the administration of the compound of Example H01, the compound of Example H04, the compound of Example H05, the compound of Example H07, the compound of Example H16, the compound of Example H17, the compound of Example H18, the compound of Example H21, and the compound of Example H24. The pharmacokinetic behavior of the compounds of the present invention in rats was studied, and its pharmacokinetic characteristics were evaluated.
A certain amount of the compounds were weighed, and dissolved in ethanol/castor oil/water=10/10/80 to form a uniform solution.
The above compounds were administered intravenously to rats at a dose of 1 mg/kg, and 0.2 ml of blood was collected from the orbit at 0.083, 0.25, 0.5, 1.0, 2.0, 4.0, 6.0, 8.0, 12.0, 24.0 hours before and after administration, and placed in an anticoagulant tube, the plasma was separated by centrifugation at 6,000 rpm for 10 minutes at 4° C., and stored at −80° C.
50 μL of plasma was taken at different times, 150 μL of acetonitrile solution containing internal standard tolbutamide (200 ng/mL) was added, the system was mixed and shaked for 5 minutes, 12000 rpm, centrifuged for 5 minutes, 100 μL of supernatant was removed, and then mixed with 200 μL of water, then the sample was loaded for analysis. The internal standard tolbutamide solid (Aladdin, T129578) powder was dissolved in DMSO to prepare into a 1 mg/mL stock solution. The stock solution was diluted with 100% acetonitrile to obtain a solution of 200 ng/mL as a protein precipitator.
The liquid chromatography system was an LC-20AD UFLC high performance liquid chromatography system (Shimadzu, LC-20AD). The mass spectrometry system was an AB Sciex API4000 triple quadrupole mass spectrometer equipped with an electrospray ionization source (ESI) (Applied Biosystems, Canada). The software used to control the liquid-mass coanalyzer and quantitative analysis was Analyst 1.6 (Applied Biosystems, Canada), and the pharmacokinetic parameters were analyzed using WinNonlin (version 5.2, Pharsight, Mountain View, Calif.) non-compartment model.
Liquid chromatographic separation was performed using AQ-C18 column (50×2.1 mm, internal diameter of […]). The column temperature was maintained at room temperature.
The compound to be tested was dissolved in DMSO to prepare a stock solution with a concentration of 1 mg/mL, and diluted with 70% acetonitrile to obtain a series of standard working solutions with concentrations of 30, 10, 3, 1, 0.3, 0.1, 0.03, and 0.01. μg/mL, and a series of standard quality control solutions (24, 8 and 0.03 μg/mL). 5 μL of standard solution and 45 μL of blank plasma matrix were mixed uniformity to obtain standard solutions (3000, 1000, 300, 100, 30, 10, 3, and 1 ng/mL) and quality control standards (plasma samples: 2400, 800, 80, and 3 ng/mL) at each concentration point of the standard curve.

T2 sequence (P35372 whole entry): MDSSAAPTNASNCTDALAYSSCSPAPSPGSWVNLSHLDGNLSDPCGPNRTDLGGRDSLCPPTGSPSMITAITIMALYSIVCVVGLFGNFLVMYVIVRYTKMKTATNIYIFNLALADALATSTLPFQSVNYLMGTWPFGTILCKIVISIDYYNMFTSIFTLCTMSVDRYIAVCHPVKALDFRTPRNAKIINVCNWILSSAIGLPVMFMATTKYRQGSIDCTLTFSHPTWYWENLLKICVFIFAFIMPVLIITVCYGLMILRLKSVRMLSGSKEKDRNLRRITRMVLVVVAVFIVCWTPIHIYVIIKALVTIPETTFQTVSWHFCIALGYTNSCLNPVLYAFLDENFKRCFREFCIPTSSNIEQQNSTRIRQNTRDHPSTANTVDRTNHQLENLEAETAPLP
T3 sequence (P35372 whole entry, species assumed): as the sequence (P35372 whole entry) above
T1 sequence (P35372 whole entry): as above

For the compound `Cc1ccc(CNCCC2(c3ccccn3)CCOC3(CCCC3)C2)c(C)c1` (stereo not shown) [Example H08, (2,4-dimethylbenzyl)-[2-(9-(pyridin-2-yl)-6-oxaspiro[4.5]decan-9-yl)ethyl]amine], the Emax in series [1] came to 3.8%. In the series with SD rats, the “PCO2, 5 min before administration” value was determined as 33.77 ± 0.88 mmHg; the “PCO2, 5 min after administration” value worked out at 35.48 ± 1.54 mmHg; the “PCO2, 30 min after administration” value came out at 34.03 ± 0.69 mmHg; the “PCO2, 60 min after administration” value came to 34.27 ± 1.4 mmHg. In the series with SD rats, the “PCO2, 120 min after administration” value came to 34.83 ± 1.15 mmHg. For the same compound, the EC50 in series [2] is 4.77 nM. In addition, the EC50 on μ opioid receptor (MOR) is 3.42 nM.

`Clc1ccsc1CNCCC1(c2ccccn2)CCOC2(CCCC2)C1` (stereo not shown) [Example H05, ((3-chloro-thiophen-2-yl)methyl)-[2-(9-(pyridin-2-yl)-6-oxaspiro[4.5]decan-9-yl)ethyl]amine] registered an Emax in series [1] of 0%. In addition, in the series on SD rats, the “PCO2, 5 min before administration” value worked out at 35.65 ± 0.44 mmHg; the “PCO2, 5 min after administration” value is given as 36.15 ± 1.93 mmHg; the “PCO2, 30 min after administration” value is reported as 33.65 ± 0.49 mmHg; the “PCO2, 60 min after administration” value turned out to be 34.85 ± 0.43 mmHg. The “PCO2, 120 min after administration” value in the series with SD rats was determined as 35.7 ± 0.95 mmHg. The EC50 in series [2] amounted to 10.2 nM. Moreover, in series [3], the AUC turned out to be 336 ± 14.1 ng·h/mL, the half-life is 3.93 ± 0.13 h and the Cmax stood at 261 ± 21 ng/mL. Besides, at μ opioid receptor (MOR), the EC50 was found to be 7.05 nM.

In series [1], `FC(F)(F)Oc1ccccc1CNCCC1(c2ccccn2)CCOC2(CCCC2)C1` (stereo not shown) [Example H22, (2-trifluoromethoxybenzyl)-[2-(9-pyridin-2-yl-6-oxa-spiro[4.5]decan-9-yl) -ethyl]-amine] had an Emax of 2.31%. The results for the EC50 (in series [2]; on μ opioid receptor (MOR)) were 11.9 nM and 1.04 nM, respectively.

Consider `Cc1ccc(CNCCC2(c3ccccn3)CCOC3(CCCC3)C2)cc1C` (stereo not shown) [Example H07, (3,4-dimethylbenzyl)-[2-(9-(pyridin-2-yl)-6-oxaspiro[4.5]decan-9-yl)ethyl]amine], for which the maximal response (Emax) in series [1] turned out to be 1.55%. Also, the EC50 in series [2] was found to be 3.08 nM. In series [3], the AUC is 583 ± 31.8 ng·h/mL, the half-life was 1.25 ± 0.05 h and the Cmax is 483 ± 33.3 ng/mL. Further, on μ opioid receptor (MOR), the EC50 is 3.15 nM.

In series [1], `FC(F)(F)Oc1cccc(CNCCC2(c3ccccn3)CCOC3(CCCC3)C2)c1` (stereo not shown) [Example H01, (3-trifluoromethoxybenzyl)-[2-(9-(pyridin-2-yl)-6-oxaspiro[4.5]decan-9-yl)ethyl]amine] showed an Emax of 6.26%. Besides, the EC50 in series [2] turned out to be 4.93 nM. Also, in series [3], the AUC turned out to be 295 ± 1 ng·h/mL, the half-life was 1.11 ± 0.24 h and the Cmax was 202 ± 33.5 ng/mL. Also, the half-maximal effective concentration (EC50) at μ opioid receptor (MOR) was found to be 6.71 nM.

In series [1], `Cc1ccc(CNCCC2(c3ccc(F)cn3)CCOC3(CCCC3)C2)cc1C` (stereo not shown) [Example H31, {2-[9-(5-fluoro-pyridin-2-yl)-6-oxa-spiro[4.5]decan-9-yl]-ethyl}-(3,4-dimethyl-benzyl)-amine] registered a maximal effect (Emax) of 5.06%. For the same compound, the results for the EC50 (in series [2]; on μ opioid receptor (MOR)) were 8.73 nM and 3.83 nM, respectively.

Compound `CNc1ccccc1CNCCC1(c2ccccn2)CCOC2(CCCC2)C1` (stereo not shown) [Example H03] had an Emax in series [1] of 3.19%. The EC50 came out at 4.36 nM in series [2] and 6.47 nM at μ opioid receptor (MOR).
